Measured values taken from US7615361B2, “Toxicity screening methods” (Ceetox, Inc., priority 2006, dated 2009).

Experiments:
[1] = Cell number (propidium iodide); assay type: cell-based, rat; details: rat, Cell Number TC50
Procedure, shortened: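 Rat hepatoma H4IIE cells exposed to compound in complete medium, then lysed with Triton X-100 containing propidium iodide; fluorescence read at 540/610 nm. Blank-subtracted RFU expressed as percent of untreated control cells, means of n=3-7.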

[2] = tested on: H4IIE cells; test: Predicted Ctox from Tox-Panel; assay type: cell-based, rat; details: 24 HR, estimated sustained plasma concentration where toxicity would be expected in vivo
Procedure, shortened: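 Ctox is taken as the NOEL from 24 h concentration-response profiles in H4IIE cells, covering at least cell replication, mitochondrial function and membrane integrity. Each indicator is expressed as a percentage of the compound-free control. It estimates the sustained toxic plasma concentration in vivo.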

[3] = tested on: rat cardiomyocytes; test: Membrane lipid peroxidation (8-isoprostane ELISA); assay type: cell-based; details: rat, 24 h
Procedure, shortened: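 Neonatal rat cardiomyocytes exposed to the test compound, then cells or supernatant harvested for biochemical analysis of oxidative stress. Values are means of each exposure group (n=3-7).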

[4] = tested on: H4IIE cells; test: Membrane lipid peroxidation (8-isoprostane ELISA); assay type: cell-based, rat; details: rat, 24 h
Procedure, shortened: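 Rat hepatoma H4IIE cells exposed to test compound prepared in complete culture medium; cells or supernatant harvested for oxidative-stress endpoints. Camptothecin and rotenone served as positive controls; group means from n=3-7.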

[5] = tested on: P-glycoprotein (PgP); test: P-glycoprotein (PgP) binding: MTT with and without cyclosporin A; assay type: cell-based, rat; details: H4IIE 24 HR
Protocol: Several antiviral drugs are substrates for P-glycoprotein transporter (PgP).
P-glycoprotein (PgP) transport proteins are expressed in the bile canalicular membrane of normal liver. However, in neoplastic cells it is not uncommon to have expression of this transporter system in the plasma membrane. […] The existence of these transporters was evaluated with the Calcein-AM assay and with known substrates of PgP.

O=C1c2c(O)ccc(O)c2C(=O)c2c(NCCNCCO)ccc(NCCNCCO)c21 [MITOXANTRONE, mitoxantrone]
CC50 at 24 h [1]: < 1000 nM
Predicted Ctox [2]: 11 µM
Membrane Lipid Peroxidation [3]: 0
Membrane Lipid Peroxidation [4]: 0
% Control (Compound + CSA) ([5]; MTT, 50 μM, with cyclosporin A): 10.4%
% Control (Compound) ([5]; MTT, 50 μM, without CSA): 69.9%
% Difference ([5]; 1-20% low, 20-50% moderate, 50-100% high PgP interaction): 85.1%
